Measured values taken from patent US9850256B2, “Antibacterial basic biaromatic derivatives with aminoalkoxy substitution” (priority 2014, dated 2017).
Values after ≈ are worked out from the molar mass of the structure shown.

How the values were obtained:
Test in all cases: Bacterial growth minimal inhibitory concentration (microdilution, cation-adjusted Mueller-Hinton Broth)
S. aureus A798 = format: cell-based, Staphylococcus aureus; conditions: Staphylococcus aureus, A798; multiply-resistant strain (methicillin- and quinolone-resistant)
How it was run: (§1)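 Broth microdilution in cation-adjusted Mueller-Hinton Broth per CLSI M7-A7; MICs in mg/L. S. aureus A798 is methicillin- and quinolone-resistant, K. pneumoniae T6474 penicillin-, cephalosporin- and quinolone-resistant; E. coli ATCC25922 and P. aeruginosa ATCC 27853 are quinolone-sensitive.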

E. coli ATCC25922 = format: cell-based; conditions: Escherichia coli, ATCC25922; quinolone-sensitive strain
How it was run: as §1

K. pneumoniae T6474 = format: cell-based, Klebsiella pneumoniae; conditions: Klebsiella pneumoniae, T6474; multiply-resistant strain (penicillin-, cephalosporin- and quinolone-resistant)
How it was run: as §1

P. aeruginosa ATCC 27853 = format: cell-based, Pseudomonas aeruginosa; conditions: Pseudomonas aeruginosa, ATCC27853; quinolone-sensitive strain
How it was run: as §1

Row | Structure (SMILES) | MIC (S. aureus A798) [µg/mL] | MIC (E. coli ATCC25922) [µg/mL] | MIC (K. pneumoniae T6474) [µg/mL] | MIC (P. aeruginosa ATCC 27853) [µg/mL]
1 | O=C1COc2ccc(N3C[C@H](CCNCc4cccc(-c5cc(OC[C@@H]6CCN6)cnn5)c4)OC3=O)nc2N1 [Example $182, 6-[(S)-5-(2-{3-[5-((S)-1-azetidin-2-ylmethoxy)-pyridazin-3-yl]-benzylamino}-ethyl)-2-oxo-oxazolidin-3-yl]-4H-pyrido[3,2-b][1,4]oxazin-3-one] | 8 (≈ 15 µM) | 16 (≈ 30.1 µM) | 16 (≈ 30.1 µM) | 16 (≈ 30.1 µM)
2 | CN1CC(Oc2cccc(-c3cc(CNCC[C@H]4CN(c5ccc6c(n5)NC(=O)CO6)C(=O)O4)ccn3)n2)C1 [Example $185, 6-[(S)-5-(2-{[6′-(1-methyl-azetidin-3-yloxy)-[2,2′]bipyridinyl-4-ylmethyl]-amino}-ethyl)-2-oxo-oxazolidin-3-yl]-4H-pyrido[3,2-b][1,4]oxazin-3-one] | 0.125 (≈ 0.235 µM) | 0.5 (≈ 0.941 µM) | 0.5 (≈ 0.941 µM) | 1 (≈ 1.88 µM)
3 | CN1CC(Oc2cccc(-c3ccnc(CNCC[C@H]4CN(c5ccc6c(n5)NC(=O)CO6)C(=O)O4)c3)n2)C1 [Example $186, 6-[(S)-5-(2-{[6-(1-methyl-azetidin-3-yloxy)-[2,4′]bipyridinyl-2′-ylmethyl]-amino}-ethyl)-2-oxo-oxazolidin-3-yl]-4H-pyrido[3,2-b][1,4]oxazin-3-one] | 0.25 (≈ 0.47 µM) | 0.5 (≈ 0.941 µM) | 1 (≈ 1.88 µM) | 0.5 (≈ 0.941 µM)
4 | CN1CC(Oc2cncc(-c3ccnc(CNCC[C@H]4CN(c5ccc6c(n5)NC(=O)CO6)C(=O)O4)c3)n2)C1 [Example $187, 6-{(S)-5-[2-({4-[6-(1-methyl-azetidin-3-yloxy)-pyrazin-2-yl]-pyridin-2-ylmethyl}-amino)-ethyl]-2-oxo-oxazolidin-3-yl}-4H-pyrido[3,2-b][1,4]oxazin-3-one] | 0.5 (≈ 0.939 µM) | 0.5 (≈ 0.939 µM) | 1 (≈ 1.88 µM) | 0.5 (≈ 0.939 µM)
5 | CN1CC(Oc2cccc(-c3cccc(CNCC[C@H]4CN(c5ccc6c(n5)NC(=O)CO6)C(=O)O4)n3)n2)C1 [Example $188, 6-[(S)-5-(2-{[6′-(1-methyl-azetidin-3-yloxy)-[2,2′]bipyridinyl-6-ylmethyl]-amino}-ethyl)-2-oxo-oxazolidin-3-yl]-4H-pyrido[3,2-b][1,4]oxazin-3-one] | 1 (≈ 1.88 µM) | 1 (≈ 1.88 µM) | 2 (≈ 3.76 µM) | 4 (≈ 7.52 µM)
6 | CN1CC(Oc2cncc(-c3cc(CNCC[C@H]4CN(c5ccc6c(n5)NC(=O)CO6)C(=O)O4)ccn3)n2)C1 [Example $189, 6-{(S)-5-[2-({2-[6-(1-methyl-azetidin-3-yloxy)-pyrazin-2-yl]-pyridin-4-ylmethyl}-amino)-ethyl]-2-oxo-oxazolidin-3-yl}-4H-pyrido[3,2-b][1,4]oxazin-3-one] | 0.25 (≈ 0.469 µM) | 1 (≈ 1.88 µM) | 1 (≈ 1.88 µM) | 2 (≈ 3.76 µM)
7 | CN1CC(Oc2cncc(-c3cncc(CNCC[C@H]4CN(c5ccc6c(n5)NC(=O)CO6)C(=O)O4)c3)n2)C1 [Example $190, 6-{(S)-5-[2-({5-[6-(1-methyl-azetidin-3-yloxy)-pyrazin-2-yl]-pyridin-3-ylmethyl}-amino)-ethyl]-2-oxo-oxazolidin-3-yl}-4H-pyrido[3,2-b][1,4]oxazin-3-one] | 4 (≈ 7.51 µM) | 2 (≈ 3.76 µM) | 4 (≈ 7.51 µM) | 4 (≈ 7.51 µM)
